What is called pIC50 is the negative decadic logarithm of the IC50, by convention in mol/L. A word on the pKi: it is −log10 of the Ki, conventionally taken in molar units.

Assay [1] deals with gel-filtered human blood platelets. Description: inhibition of aggregation of gel-filtered human blood platelets following stimulation with ADP or thrombin. The conditions noted are these: Platelet. It counts as cell-based. As to the method:
(§1) The compounds are tested, in particular, for their ability to inhibit blood-platelet aggregation and the adherence of fibrinogen to blood platelets (gel-filtered blood platelets from human donor blood are used which are activated with ADP or thrombin), as well as for their in-vivo ability to inhibit blood-platelet aggregation and thrombosis.
As a functional test, the ability is measured of the compounds according to the invention to inhibit the aggregation of gel-filtered human blood platelets following stimulation with ADP or thrombin. The value given is the IC50 value of the inhibition. (Literature: G. A. Marguerie et al., J. Biol. Chem. 254 (1979), 5357-5363).

In assay [2] the target is T1, fibrinogen receptor (glycoprotein IIb/IIIa) (Homo sapiens, UniProt P05106+P08514).
T1 construct: on intact, gel-filtered human blood platelets; from tissue; host or cells: gel-filtered blood platelets from human donor blood
T1 sequence (P08514 32-887 limits assumed): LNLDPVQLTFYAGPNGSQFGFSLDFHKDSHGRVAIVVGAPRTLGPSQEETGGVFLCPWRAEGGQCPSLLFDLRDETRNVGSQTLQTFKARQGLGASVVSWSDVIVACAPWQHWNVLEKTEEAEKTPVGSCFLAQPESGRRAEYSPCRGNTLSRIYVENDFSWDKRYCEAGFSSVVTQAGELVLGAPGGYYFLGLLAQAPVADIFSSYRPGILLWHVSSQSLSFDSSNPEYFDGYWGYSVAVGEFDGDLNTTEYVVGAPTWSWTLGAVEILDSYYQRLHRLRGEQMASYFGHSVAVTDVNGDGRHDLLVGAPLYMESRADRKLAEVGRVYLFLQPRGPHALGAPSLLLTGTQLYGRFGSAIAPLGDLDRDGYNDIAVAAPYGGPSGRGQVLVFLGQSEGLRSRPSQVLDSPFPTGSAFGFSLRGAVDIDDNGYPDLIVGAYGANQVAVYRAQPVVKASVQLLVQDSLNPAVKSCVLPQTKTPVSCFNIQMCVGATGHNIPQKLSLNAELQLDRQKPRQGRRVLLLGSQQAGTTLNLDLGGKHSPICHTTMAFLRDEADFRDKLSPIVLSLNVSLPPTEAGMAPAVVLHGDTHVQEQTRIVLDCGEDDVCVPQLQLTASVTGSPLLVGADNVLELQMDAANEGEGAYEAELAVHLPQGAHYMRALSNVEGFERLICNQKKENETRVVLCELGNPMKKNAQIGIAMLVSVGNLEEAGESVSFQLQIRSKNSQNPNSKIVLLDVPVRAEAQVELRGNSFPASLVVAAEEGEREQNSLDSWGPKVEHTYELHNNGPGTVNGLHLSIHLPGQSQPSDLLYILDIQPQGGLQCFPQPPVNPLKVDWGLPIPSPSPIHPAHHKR
T1 sequence (P08514 891-1039 limits assumed): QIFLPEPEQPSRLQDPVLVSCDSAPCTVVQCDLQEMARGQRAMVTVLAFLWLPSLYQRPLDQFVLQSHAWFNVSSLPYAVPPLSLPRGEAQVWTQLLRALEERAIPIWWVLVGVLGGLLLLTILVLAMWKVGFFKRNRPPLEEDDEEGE
T1 sequence (P05106 27-788): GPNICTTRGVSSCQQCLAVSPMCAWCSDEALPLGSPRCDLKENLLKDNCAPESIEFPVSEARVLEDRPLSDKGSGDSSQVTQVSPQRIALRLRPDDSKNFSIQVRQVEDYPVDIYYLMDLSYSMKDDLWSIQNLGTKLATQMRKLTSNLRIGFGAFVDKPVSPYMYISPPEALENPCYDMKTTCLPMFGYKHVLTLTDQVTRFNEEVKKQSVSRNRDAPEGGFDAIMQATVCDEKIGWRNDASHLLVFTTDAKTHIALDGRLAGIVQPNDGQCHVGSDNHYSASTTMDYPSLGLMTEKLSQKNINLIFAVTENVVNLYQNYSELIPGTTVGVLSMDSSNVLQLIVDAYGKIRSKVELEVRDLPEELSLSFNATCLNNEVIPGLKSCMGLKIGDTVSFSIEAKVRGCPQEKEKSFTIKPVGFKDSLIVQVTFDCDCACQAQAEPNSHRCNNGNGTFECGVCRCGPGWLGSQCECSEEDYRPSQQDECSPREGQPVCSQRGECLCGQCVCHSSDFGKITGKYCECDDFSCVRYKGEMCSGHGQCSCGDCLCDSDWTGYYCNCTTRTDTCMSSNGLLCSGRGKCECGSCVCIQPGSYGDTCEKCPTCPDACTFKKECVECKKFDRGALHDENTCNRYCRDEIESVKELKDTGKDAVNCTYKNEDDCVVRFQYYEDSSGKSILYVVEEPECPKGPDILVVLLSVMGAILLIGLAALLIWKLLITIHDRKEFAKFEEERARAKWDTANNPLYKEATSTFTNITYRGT
Description: inhibition of binding of 125I-fibrinogen to its receptor on intact, gel-filtered human blood platelets. The conditions noted are these: following stimulation with ADP (10 μM); read-out: Ki, ADP-stimulated (inhibition of the binding of 125I-fibrinogen). The protocol:
as §1
The test is of the ability of the compounds according to the invention to inhibit the binding of fibrinogen to its receptor (glycoprotein IIb/IIIa) on intact, gel-filtered human blood platelets. The value given is the Ki value for inhibition of the binding of ^125 I-fibrinogen following stimulation with ADP (10 μM). (Literature: J. S. Bennett and G. Vilaire, J. Clin. Invest. 64 (1979), 1393-1401; E. Kornecki et al., J. Biol. Chem. 256 (1981), 5695-5701; G. A. Marguerie et al., J. Biol. Chem. 254 (1979), 5357-5363; G. A. Marguerie et al., J. Biol. Chem. 255 (1980), 154-161).

[3] abbreviates: read-out: ADP-stimulated IC50 (inhibition of platelet aggregation).
The mark [4] stands for this setting: read-out: Thrombin-stimulated IC50 (inhibition of platelet aggregation).

pIC50, pKi: −log10 of the molar value. Where two headings read alike, the source gives them in different places.

In the case of `N=C(N)c1ccc(CC2NC(=O)N(CCN(CC(=O)O)C(=O)OCC3c4ccccc4-c4ccccc43)C2=O)cc1` (centres unmarked) [Example 2, (2-(4-(4-(Aminoiminomethyl)benzyl)-2,5-dioxoimidazolidin-1-yl)ethyl)-(9-fluorenylmethoxycarbonyl)aminoacetic acid], the pIC50 in assay [1] (setting [3]) and in assay [1] (setting [4]) was 4.70 in each case.
`N=C(N)c1ccc(C=CC(=O)NCCCN(CC(=O)O)C(=O)NC(C(=O)O)c2ccccc2)cc1` (centres unmarked) [Example 1, (1-(3-(3-(4-(Aminoiminomethyl)phenyl)acryloylamino)propyl)-3-(hydroxycarbonylphenylmethyl)ureido)acetic acid acetate]: the pKi in assay [2] is 6.38. In addition, the pIC50 in assay [1] (setting [3]) is 5.82; in assay [1] (setting [4]), 6.00.

For the origin of these results see patent publication US5681838A, “Substituted amino compounds, their preparation and their use as inhibitors of thrombocyte-aggregation” (Hoechst Aktiengesellschaft, priority 1993, dated 1997).
